Where “and” joins values, the source holds several entries; their conditions need not be identical. Equal values may be shown once.
Legend:
[1] = UPLC/ESI-tqMS time profile of 2,6-DCQ and its degradation products in simulated seawater (pH 8.2, darkness); OH-DCQ formation; details: for Concentration: 2,6-DCQ degradation / OH-DCQ formation; for Peak area: 2,6-DCQ degradation, pH 8.2, darkness
Description: A Waters UPLC system coupled with ESI-tqMS was used to characterize the degradation products of 2,6-DCQ. The UPLC separation was performed using an HSS T3 column (100 × 2.1 mm, 1.8 μm particle size, Waters) with a column temperature of 35 °C. A gradient eluent of methanol–water was applied at a flow rate of 0.4 mL min^−1. The gradient program was set as follows: methanol/water (v/v) ratio changed linearly from 5/95 to 90/10 in the first 8 min and then returned to 5/95 during 8.0‒8.1 min, which was held for 2.9 min for re-equilibration. The ESI-tqMS was set as follows: ESI negative mode, capillary voltage 2.8 kV, cone voltage 10–50 V (depending on analytes), cone gas flow 50 L h^−1, source temperature 120 °C, desolvation temperature 400 °C, desolvation gas flow 800 L h^−1, collision energy 15–50 eV (depending on analytes), collision gas (argon) flow 0.25 mL min^−1, and mass resolution 15 (1-unit resolution).
The degradation of 2,6-DCQ in seawater was simulated by adding 10 mg L^−1 2,6-DCQ to 50 mL ultrapure water, which was adjusted to pH 8.2 with 5 mM sodium carbonate (to simulate the alkalinity in seawater and also to be compatible with the subsequent UPLC/ESI-tqMS analysis). The sample was kept in darkness for 0–24 h, during which the pH of the sample was maintained at 8.1 ± 0.1. At a designated reaction time, 7.5 μL of the sample was injected into the UPLC system. For a nonhalogenated degradation product, the selected ion recording (SIR) mode with a dwell time of 0.05 s was adopted to obtain the retention time. For halogenated degradation products, the multiple reaction monitoring mode with a dwell time of 0.05 s was used to obtain the retention time and the isotopic abundance ratio. To investigate the time-dependent profile of 2,6-DCQ and its degradation products, the peak area of each compound was determined using the SIR mode in the UPLC/ESI-tqMS analysis.
The second aliquot was subjected to analysis of total organic halogen to quantify the collected OH-DCQ. The determination of total organic halogen was based on Standard Method 5320B[52], with modifications of using off-line ion chromatography for halide detection. Briefly, the aliquot was dissolved in 100 mL ultrapure water and acidified to pH 2 with concentrated nitric acid[52] prior to adsorption onto pre-packed activated carbon columns (Mitsubishi). A three-channel adsorption module (TXA03C, Mitsubishi Chemical Analytech) was used for adsorption. An AQF-100 automatic quick furnace (Mitsubishi Chemical Analytech) was used for pyrolysis. During the pyrolysis process, the chlorine atoms in OH-DCQ were converted to chloride. The chloride ion concentration was determined using an ICS-3000 ion chromatography system (Dionex). 2,6-DCQ was used as a standard compound for measuring total organic halogen to determine the recovery of the analysis. The total organic halogen analysis was conducted in duplicate.

[2] = test system: P. dumerilii embryos; assay: Developmental toxicity (EC50) of OH-DCQ and 2,6-DCQ to P. dumerilii embryos; assay type: in vivo, Platynereis dumerilii
Description: The third aliquot was subjected to the developmental toxicity assay with P. dumerilii embryos. The aliquot was dissolved in 10 mL of seawater and adjusted to pH 8.2. The embryos at 12-h postfertilization were exposed to different levels of OH-DCQ for 12 h. By 24-h postfertilization, normally and abnormally developed embryos were counted using an inverted stereomicroscope. Based on the percentage of normally developed embryos, an exposure−response curve was generated. The median effective concentration (EC50) was determined using SigmaPlot 12 software. The developmental toxicity of 2,6-DCQ was also evaluated for comparison. The toxicity bioassay was conducted in duplicate.

[3] = test system: rat; details: oral; cited from earlier work

Q: For `O=C1C=C(Cl)C(=O)C(Cl)=C1` [2,6-DCQ, 2,6-dichlorobenzoquinone], which Concentration ([1]; degradation time 0 h) is on record?
A: 10000 ng/mL

Q: What about the Concentration ([1]; degradation time 0.25 h) of the same compound?
A: 9325 ng/mL

Q: And the Concentration ([1]; degradation time 0.5 h)?
A: 7750.7 ng/mL

Q: What about the Concentration ([1]; degradation time 0.75 h) of the same compound?
A: 7678 ng/mL

Q: What about the Concentration ([1]; degradation time 1 h) of the same compound?
A: 6527 ng/mL

Q: And the Concentration ([1]; degradation time 1.25 h)?
A: 5831 ng/mL

Q: And the Concentration ([1]; degradation time 1.5 h)?
A: 4783 ng/mL

Q: And the Concentration ([1]; degradation time 1.75 h)?
A: 4325 ng/mL

Q: And the Concentration ([1]; degradation time 2 h)?
A: 3926 ng/mL

Q: And the Concentration ([1]; degradation time 2.25 h)?
A: 3481 ng/mL

Q: What about the Concentration ([1]; degradation time 2.5 h) of the same compound?
A: 3034.4 ng/mL

Q: And the Concentration ([1]; degradation time 2.75 h)?
A: 2761 ng/mL

Q: And the Concentration ([1]; degradation time 3 h)?
A: 2333 ng/mL

Q: What about the Concentration ([1]; degradation time 3.25 h) of the same compound?
A: 2120 ng/mL

Q: And the Concentration ([1]; degradation time 3.5 h)?
A: 1754 ng/mL

Q: And the Concentration ([1]; degradation time 3.75 h)?
A: 1608 ng/mL

Q: What about the Concentration ([1]; degradation time 4 h) of the same compound?
A: 1408 ng/mL

Q: What about the Concentration ([1]; degradation time 4.5 h) of the same compound?
A: 986.7 ng/mL

Q: And the Concentration ([1]; degradation time 5 h)?
A: 705.1 ng/mL

Q: And the Concentration ([1]; degradation time 5.5 h)?
A: 583.3 ng/mL

Q: What about the Concentration ([1]; degradation time 6 h) of the same compound?
A: 424 ng/mL

Q: What about the Concentration ([1]; degradation time 6.5 h) of the same compound?
A: 287.5 ng/mL

Q: What about the Concentration ([1]; degradation time 7 h) of the same compound?
A: 231.6 ng/mL

Q: And the Concentration ([1]; degradation time 7.5 h)?
A: 179.6 ng/mL

Q: What about the Concentration ([1]; degradation time 8 h) of the same compound?
A: 153.3 ng/mL

Q: What about the Concentration ([1]; degradation time 10 h) of the same compound?
A: 54.98 ng/mL

Q: What about the Concentration ([1]; degradation time 12 h) of the same compound?
A: 24.77 ng/mL

Q: What about the Concentration ([1]; degradation time 14 h) of the same compound?
A: 14.36 ng/mL

Q: What about the Concentration ([1]; degradation time 16 h) of the same compound?
A: 0 ng/mL

Q: What about the Concentration ([1]; degradation time 18 h) of the same compound?
A: 0 ng/mL

Q: What about the Concentration ([1]; degradation time 20 h) of the same compound?
A: 0 ng/mL

Q: What about the Concentration ([1]; degradation time 24 h) of the same compound?
A: 0 ng/mL

Q: And the Peak area ([1]; 0 h)?
A: 56527.8

Q: What about the Peak area ([1]; 0.25 h) of the same compound?
A: 52714.2

Q: What about the Peak area ([1]; 0.5 h) of the same compound?
A: 43813

Q: And the Peak area ([1]; 0.75 h)?
A: 43401.4

Q: What about the Peak area ([1]; 1 h) of the same compound?
A: 36894.2

Q: And the Peak area ([1]; 1.25 h)?
A: 32960.2

Q: What about the Peak area ([1]; 1.5 h) of the same compound?
A: 27035.4

Q: And the Peak area ([1]; 1.75 h)?
A: 24446.8

Q: What about the Peak area ([1]; 2 h) of the same compound?
A: 22195.6

Q: And the Peak area ([1]; 2.25 h)?
A: 19679.8

Q: What about the Peak area ([1]; 2.5 h) of the same compound?
A: 17152.8

Q: And the Peak area ([1]; 2.75 h)?
A: 15608.6

Q: And the Peak area ([1]; 3 h)?
A: 13185.2

Q: What about the Peak area ([1]; 3.25 h) of the same compound?
A: 11984

Q: And the Peak area ([1]; 3.5 h)?
A: 9914.8

Q: What about the Peak area ([1]; 3.75 h) of the same compound?
A: 9088.8

Q: And the Peak area ([1]; 4 h)?
A: 7959

Q: And the Peak area ([1]; 4.5 h)?
A: 5577.6

Q: What about the Peak area ([1]; 5 h) of the same compound?
A: 3985.8

Q: And the Peak area ([1]; 5.5 h)?
A: 3297

Q: What about the Peak area ([1]; 6 h) of the same compound?
A: 2396.8

Q: And the Peak area ([1]; 6.5 h)?
A: 1625.4

Q: And the Peak area ([1]; 7 h)?
A: 1309

Q: What about the Peak area ([1]; 7.5 h) of the same compound?
A: 1015

Q: What about the Peak area ([1]; 8 h) of the same compound?
A: 866.6

Q: What about the Peak area ([1]; 10 h) of the same compound?
A: 310.8

Q: And the Peak area ([1]; 12 h)?
A: 140

Q: What about the Peak area ([1]; 14 h) of the same compound?
A: 81.2

Q: And the Peak area ([1]; 16 h)?
A: 0

Q: What about the Peak area ([1]; 18 h) of the same compound?
A: 0

Q: What about the Peak area ([1]; 20 h) of the same compound?
A: 0

Q: And the Peak area ([1]; 24 h)?
A: 0

Q: What about the Normal development ([2]; 2,6-DCQ concentration 0.2 mg L-1) of the same compound?
A: 80.7017% and 79.2079%

Q: What about the Normal development ([2]; 2,6-DCQ concentration 0.3 mg L-1) of the same compound?
A: 76.7442% and 82.4428%

Q: What about the Normal development ([2]; 2,6-DCQ concentration 0.4 mg L-1) of the same compound?
A: 80% and 80.822%

Q: What about the Normal development ([2]; 2,6-DCQ concentration 0.5 mg L-1) of the same compound?
A: 62.0155% and 62.3077%

Q: And the Normal development ([2]; 2,6-DCQ concentration 0.6 mg L-1)?
A: 42.1875% and 37.2727%

Q: What about the Normal development ([2]; 2,6-DCQ concentration 0.75 mg L-1) of the same compound?
A: 16.2963% and 20.7921%

Q: What about the Normal development ([2]; 2,6-DCQ concentration 1 mg L-1) of the same compound?
A: 7.407% and 6.667%

Q: What about the “Developmental toxicity relative to OH-DCQ (times higher)” value ([2]; P. dumerilii embryos) of the same compound?
A: 149 times

Q: And the LD10 [3]?
A: 500 mg/kg

— article PMC11161644, “An effective and rapidly degradable disinfectant from disinfection byproducts” (Nature Communications, 2024)
